From PubChem BioAssay (NCI)
Values joined by “and” are separate entries in the source; they are usually repeats but may differ in a detail not shown here. Identical values can stand only once.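 Step 1: Grow cells in 96-well plates. Step 2: Expose to compound for 48 hours at 5 concentrations. Step 3: Interpolate endpoints linearly; if unreached, use highest concentration. Abbreviation: GI50, concentration required for 50% inhibition of growth. At the TGI there is no net growth.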

Key:
Test in all cases: DTP human tumour cell line panel, 48 h
786-0 renal = tested on: 786-0 renal
SNB-19 CNS = tested on: SNB-19 CNS
OVCAR-5 ovarian = tested on: OVCAR-5 ovarian
UACC-62 melanoma = tested on: UACC-62 melanoma
U251 CNS = tested on: U251 CNS
HL-60(TB) leukemia = tested on: HL-60(TB) leukemia
HOP-92 NSCLC = tested on: HOP-92 NSCLC
LOX IMVI melanoma = tested on: LOX IMVI melanoma
SF-295 CNS = tested on: SF-295 CNS
NCI-H460 lung = tested on: NCI-H460 lung

Compound | GI50 (786-0 renal) [µM] | TGI (786-0 renal) | GI50 (SNB-19 CNS) [µM] | TGI (SNB-19 CNS) [µM] | GI50 (OVCAR-5 ovarian) [µM] | TGI (OVCAR-5 ovarian) [µM] | GI50 (UACC-62 melanoma) [µM] | TGI (UACC-62 melanoma) [µM] | GI50 (U251 CNS) [µM] | TGI (U251 CNS) [µM] | GI50 (HL-60(TB) leukemia) [µM] | TGI (HL-60(TB) leukemia) | GI50 (HOP-92 NSCLC) [µM] | TGI (HOP-92 NSCLC) | GI50 (LOX IMVI melanoma) [µM] | TGI (LOX IMVI melanoma) [µM] | GI50 (SF-295 CNS) [µM] | TGI (SF-295 CNS) [µM] | GI50 (NCI-H460 lung) [µM] | TGI (NCI-H460 lung) [µM]
COc1cccc(/C=C/c2nc3c(cnn3-c3ccccc3)c(=O)[nH]2)c1 | 12.4 | > 100 µM | > 51.9 | > 100 | > 100 | > 100 | > 100 | > 100 | > 72.1 | > 100 | > 62.8 | > 100 µM | > 100 | > 100 µM | > 100 | > 100 | 17.8 | > 100 | > 81.8 | > 100
c1ccc(CN2CCc3[nH]c4ccccc4c3C2)cc1 |  | 44.5 µM |  | > 95.7 |  | > 96.3 |  | 66.9 |  | 53.8 |  | 46.3 µM |  | 62.1 µM |  | 40.7 |  | 65.9 |  | 31
Cc1cccc(C)c1NC(=O)CCc1nnc2s/c(=C\c3ccc(N(C)C)cc3)c(=O)n12 |  | > 100 µM |  | > 100 |  | > 100 |  | > 100 |  | > 100 |  | > 100 µM |  | > 100 µM |  | > 100 |  | > 100 |  | > 100
C=C1C(=O)OC2C1C(OC(=O)/C(C)=C/C)CC(O)(CCl)C1C(O)C=C(C)C21O (stereo unspecified) |  | 18.4 µM |  | > 64.2 |  | 32.4 |  | 25.5 |  | 65.1 |  | 18 µM |  | 24.4 µM |  | 17.8 |  | > 100 |  | 36.2
Cc1ccc(C(=O)NCCCOc2ccc(N3C(N)=NC(N)=NC3(C)C)cc2Cl)cc1S(=O)(=O)F | 80 | > 100 µM | 75 | > 100 | > 100 | > 100 | 9.39 | > 100 | 7.72 | > 100 | > 100 | > 100 µM | > 100 | > 100 µM | 5.05 | > 100 | > 100 | > 100 | 8.44 | > 100
N#Cc1ccc(-c2c(-c3ncn[nH]3)sc(N3CCOCC3)c2C#N)c(F)c1 | 0.457 | 12.1 µM | 1.96 | 38.9 | 0.455 | 10.5 | 0.384 | 2.64 | 1.03 | 21.7 | 0.781 | > 100 µM | 0.0663 | 0.973 µM | 0.546 | 13.1 | 0.426 | 11.4 | 0.419 | 23.6
CCCCCCCCCC[C@@H](O)[C@@H]1CC[C@@H]([C@@H]2CC[C@@H]([C@@H](O)CCCCCCCCCC[C@H](O)CC3=CC(C)OC3=O)O2)O1 (stereo partly specified) | 2.49 | 7.95 µM and 12.1 µM |  | 24.6 | > 75.4 | > 100 | 7.27 |  |  | > 46 | 1.54 | 2.96 µM and 5.84 µM | 10.3 | 8.09 µM and 33.8 µM | 4.26 |  | 0.686 | > 100 | 3.4 | > 100
CC1=C(C(=O)NCc2ccccc2)C(c2ccc(Cl)c(Cl)c2)C(C(=O)NCc2ccccc2)=C(C)N1 |  | > 100 µM |  | > 100 |  | > 100 |  | > 100 |  | > 100 |  | > 100 µM |  | > 100 µM |  | > 100 |  | > 100 |  | > 100
COc1ccc(C(C)c2cc(OC)c(OC)c(OC)c2)cc1 (stereo unspecified) | 0.213 | > 50 µM | 0.221 | > 50 | 0.291 | > 50 | 0.27 | > 50 | 0.173 | > 50 | 0.0979 | 0.374 µM | 3.6 | > 50 µM | 0.537 | > 50 | 0.0752 | > 50 | 0.177 | > 50
C[P+](C)(C)C |  | > 100 µM |  | > 100 |  | > 100 |  | > 100 |  | > 100 |  | > 100 µM |  | > 100 µM |  | > 100 |  | > 100 |  | > 100
CNCC/C=C1\c2cc3c(cc2-c2c1c1cc(OC)c(OC)cc1c(=O)n2C)OCO3 | 0.587 | 33 µM | 1.08 | 23.1 | 4.51 | 27.4 | 0.344 | 2.3 | 0.309 | 19.1 | 0.239 | 2.57 µM | 0.301 | 2.74 µM | 0.51 | 2.57 | 0.0811 | 15.6 | 0.196 | 5.97
